The record followed here is ChEMBL document CHEMBL1201862, “PubChem BioAssay data set” (2004).

Calls of active or inactive are those of the source. Cut-off read from the data, not from the text of the source, for most assays here: actives have a measured IC50 and inactives only a lower limit.

One assay concerns the target T1, Caspase-3 (Homo sapiens, UniProt P42574).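 Note: Dose-response selectivity test against caspase-3 for candidate inhibitors of sentrin-specific proteases (SENPs).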
T1 sequence (P42574 whole entry): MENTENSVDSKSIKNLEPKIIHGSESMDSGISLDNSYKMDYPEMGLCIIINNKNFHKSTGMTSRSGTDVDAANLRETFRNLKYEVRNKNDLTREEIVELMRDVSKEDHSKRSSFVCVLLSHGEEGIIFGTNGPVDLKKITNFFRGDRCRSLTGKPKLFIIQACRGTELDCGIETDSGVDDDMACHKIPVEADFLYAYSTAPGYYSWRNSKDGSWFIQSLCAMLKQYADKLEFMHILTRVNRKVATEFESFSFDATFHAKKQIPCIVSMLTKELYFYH
In kind it is functional.

For assay [1], the target named is T2, Sentrin-specific protease 7 (Homo sapiens, UniProt Q9BQF6).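 Note: Luminescence-based dose-response confirmation of ultra-high-throughput screening hits, measuring inhibition of SENP7.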
T2 sequence (Q9BQF6 whole entry): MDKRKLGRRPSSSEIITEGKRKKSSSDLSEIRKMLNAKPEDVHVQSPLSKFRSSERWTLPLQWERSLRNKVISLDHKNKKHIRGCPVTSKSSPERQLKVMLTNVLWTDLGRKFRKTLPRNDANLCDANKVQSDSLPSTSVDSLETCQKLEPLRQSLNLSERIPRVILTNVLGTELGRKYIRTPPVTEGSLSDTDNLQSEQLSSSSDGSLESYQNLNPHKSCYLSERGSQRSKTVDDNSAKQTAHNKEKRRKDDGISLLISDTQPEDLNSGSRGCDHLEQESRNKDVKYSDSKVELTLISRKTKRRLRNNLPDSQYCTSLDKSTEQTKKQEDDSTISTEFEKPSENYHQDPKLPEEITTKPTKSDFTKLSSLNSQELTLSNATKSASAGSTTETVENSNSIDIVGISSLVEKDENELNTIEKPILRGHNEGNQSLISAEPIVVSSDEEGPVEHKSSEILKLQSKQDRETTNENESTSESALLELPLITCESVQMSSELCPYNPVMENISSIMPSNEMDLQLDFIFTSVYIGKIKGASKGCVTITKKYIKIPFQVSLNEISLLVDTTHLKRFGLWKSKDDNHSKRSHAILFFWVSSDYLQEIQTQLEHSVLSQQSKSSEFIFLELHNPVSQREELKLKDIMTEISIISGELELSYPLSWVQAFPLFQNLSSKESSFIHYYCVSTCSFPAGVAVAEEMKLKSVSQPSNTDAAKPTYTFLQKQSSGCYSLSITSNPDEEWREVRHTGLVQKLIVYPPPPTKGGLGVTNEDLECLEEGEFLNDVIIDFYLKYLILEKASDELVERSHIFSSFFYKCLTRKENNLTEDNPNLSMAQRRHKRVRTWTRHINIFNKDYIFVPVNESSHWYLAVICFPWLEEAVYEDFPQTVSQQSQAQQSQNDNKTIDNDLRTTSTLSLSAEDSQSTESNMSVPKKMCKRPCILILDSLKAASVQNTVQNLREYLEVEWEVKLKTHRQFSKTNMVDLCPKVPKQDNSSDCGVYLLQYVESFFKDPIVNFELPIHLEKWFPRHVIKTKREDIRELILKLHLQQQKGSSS
In kind it is functional.

Assay [2] addresses T3, Sentrin-specific protease 6 (Homo sapiens, UniProt Q9GZR1).
T3 sequence (Q9GZR1 whole entry): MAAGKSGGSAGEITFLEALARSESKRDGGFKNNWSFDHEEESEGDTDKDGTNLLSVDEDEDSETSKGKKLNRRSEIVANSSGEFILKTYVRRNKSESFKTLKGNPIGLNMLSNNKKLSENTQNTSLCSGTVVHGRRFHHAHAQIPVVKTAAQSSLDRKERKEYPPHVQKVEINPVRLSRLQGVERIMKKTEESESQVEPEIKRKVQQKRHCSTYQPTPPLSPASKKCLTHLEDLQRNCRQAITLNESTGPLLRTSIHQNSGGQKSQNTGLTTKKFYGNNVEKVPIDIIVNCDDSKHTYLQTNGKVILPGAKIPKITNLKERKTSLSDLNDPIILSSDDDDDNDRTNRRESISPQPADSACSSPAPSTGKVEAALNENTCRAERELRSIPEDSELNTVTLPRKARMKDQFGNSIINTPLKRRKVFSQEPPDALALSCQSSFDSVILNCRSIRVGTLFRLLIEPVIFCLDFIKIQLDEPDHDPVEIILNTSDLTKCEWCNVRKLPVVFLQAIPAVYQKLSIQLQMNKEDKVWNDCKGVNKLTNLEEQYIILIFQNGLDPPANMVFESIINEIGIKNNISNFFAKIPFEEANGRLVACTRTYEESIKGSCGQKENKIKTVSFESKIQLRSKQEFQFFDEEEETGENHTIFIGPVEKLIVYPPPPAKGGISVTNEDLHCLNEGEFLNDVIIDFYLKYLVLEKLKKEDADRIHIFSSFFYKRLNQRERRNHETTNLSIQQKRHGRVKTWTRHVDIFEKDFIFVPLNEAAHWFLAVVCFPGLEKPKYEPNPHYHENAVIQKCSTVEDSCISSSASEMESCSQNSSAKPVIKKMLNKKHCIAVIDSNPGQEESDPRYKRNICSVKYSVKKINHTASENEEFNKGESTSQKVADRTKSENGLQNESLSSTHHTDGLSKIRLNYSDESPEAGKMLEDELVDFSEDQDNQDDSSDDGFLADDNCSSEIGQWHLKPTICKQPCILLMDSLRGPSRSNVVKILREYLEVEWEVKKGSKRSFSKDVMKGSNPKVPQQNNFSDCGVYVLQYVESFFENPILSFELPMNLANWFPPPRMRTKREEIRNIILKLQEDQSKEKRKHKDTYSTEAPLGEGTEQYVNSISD
In kind it is functional.

In assay [3] the target is T4, Sentrin-specific protease 8 (Homo sapiens, UniProt Q96LD8).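 Note: luminescence read-out of SENP8 inhibition, dose-response confirmation following an ultra-high-throughput screen.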
T4 sequence (Q96LD8 whole entry): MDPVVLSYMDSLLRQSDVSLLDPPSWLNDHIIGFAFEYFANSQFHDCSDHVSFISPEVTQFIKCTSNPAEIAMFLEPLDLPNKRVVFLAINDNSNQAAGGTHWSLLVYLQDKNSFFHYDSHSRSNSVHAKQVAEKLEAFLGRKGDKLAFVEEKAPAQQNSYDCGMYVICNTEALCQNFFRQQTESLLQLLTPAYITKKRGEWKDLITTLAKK
In kind it is functional.

For a further assay, the target named is T5, Protein skinhead-1 (Caenorhabditis elegans, UniProt P34707).
T5 sequence (P34707 whole entry): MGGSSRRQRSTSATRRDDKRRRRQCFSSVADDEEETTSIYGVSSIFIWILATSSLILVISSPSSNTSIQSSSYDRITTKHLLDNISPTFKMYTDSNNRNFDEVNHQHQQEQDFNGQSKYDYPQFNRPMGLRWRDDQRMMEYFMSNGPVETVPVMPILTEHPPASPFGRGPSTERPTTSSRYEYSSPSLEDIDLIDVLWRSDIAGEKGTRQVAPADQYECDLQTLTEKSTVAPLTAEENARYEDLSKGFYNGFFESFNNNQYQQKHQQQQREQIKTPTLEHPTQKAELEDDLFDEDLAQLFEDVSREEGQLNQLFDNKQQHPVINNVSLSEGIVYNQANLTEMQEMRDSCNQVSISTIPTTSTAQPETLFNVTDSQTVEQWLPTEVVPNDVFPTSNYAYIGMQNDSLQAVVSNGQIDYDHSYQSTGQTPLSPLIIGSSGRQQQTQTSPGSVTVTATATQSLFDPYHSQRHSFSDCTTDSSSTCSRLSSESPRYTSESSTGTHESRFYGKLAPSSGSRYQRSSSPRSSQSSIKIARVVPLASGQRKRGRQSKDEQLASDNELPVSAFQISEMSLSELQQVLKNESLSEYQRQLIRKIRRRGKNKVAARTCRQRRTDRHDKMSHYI
The format is functional.

Assay [4] concerns the target Heat shock protein HSP 90-alpha (Homo sapiens, UniProt P07900). The format is functional, organism-based.
The next assay relates to H9c2. Kind of assay: cells. The settings on record: Rattus norvegicus, H9c2, Myocardium. The format is functional, cell-based.
For assay [5], the target named is T6, Apoptotic protease-activating factor 1 (Homo sapiens, UniProt O14727).
T6 sequence (O14727 whole entry): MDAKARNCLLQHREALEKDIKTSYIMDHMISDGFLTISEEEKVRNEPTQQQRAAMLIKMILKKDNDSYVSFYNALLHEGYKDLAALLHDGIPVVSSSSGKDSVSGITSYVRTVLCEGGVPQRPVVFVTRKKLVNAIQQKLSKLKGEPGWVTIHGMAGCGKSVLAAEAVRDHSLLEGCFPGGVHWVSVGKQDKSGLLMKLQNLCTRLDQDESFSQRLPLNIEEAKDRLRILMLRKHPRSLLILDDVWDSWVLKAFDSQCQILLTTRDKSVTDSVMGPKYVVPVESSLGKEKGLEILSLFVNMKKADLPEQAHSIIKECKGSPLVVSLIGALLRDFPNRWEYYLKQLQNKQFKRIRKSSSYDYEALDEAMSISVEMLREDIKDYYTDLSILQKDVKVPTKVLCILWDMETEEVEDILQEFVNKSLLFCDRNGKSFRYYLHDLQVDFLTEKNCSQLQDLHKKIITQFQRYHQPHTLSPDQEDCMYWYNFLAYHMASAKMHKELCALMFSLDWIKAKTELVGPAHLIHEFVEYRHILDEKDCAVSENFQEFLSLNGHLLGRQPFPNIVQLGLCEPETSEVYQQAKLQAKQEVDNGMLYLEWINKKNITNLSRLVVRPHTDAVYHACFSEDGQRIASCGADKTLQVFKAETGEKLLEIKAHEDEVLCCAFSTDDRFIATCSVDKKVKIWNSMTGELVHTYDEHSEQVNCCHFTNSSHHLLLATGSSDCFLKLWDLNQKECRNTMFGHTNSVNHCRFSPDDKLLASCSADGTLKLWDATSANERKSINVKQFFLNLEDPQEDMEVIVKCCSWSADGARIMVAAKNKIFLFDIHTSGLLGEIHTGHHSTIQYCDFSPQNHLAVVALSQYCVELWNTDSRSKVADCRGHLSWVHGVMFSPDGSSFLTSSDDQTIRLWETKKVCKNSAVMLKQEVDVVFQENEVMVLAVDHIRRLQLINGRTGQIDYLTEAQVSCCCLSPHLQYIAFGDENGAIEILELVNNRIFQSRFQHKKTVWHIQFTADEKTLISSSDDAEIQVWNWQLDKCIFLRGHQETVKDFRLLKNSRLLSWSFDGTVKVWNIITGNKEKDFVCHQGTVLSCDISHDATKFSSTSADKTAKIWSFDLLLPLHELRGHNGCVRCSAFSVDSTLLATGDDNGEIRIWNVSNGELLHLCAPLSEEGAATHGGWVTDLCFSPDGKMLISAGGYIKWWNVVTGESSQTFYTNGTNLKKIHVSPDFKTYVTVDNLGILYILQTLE
In kind it is functional.

The target of assay [6] is T7, Corticotropin-releasing factor receptor 2/Corticotropin-releasing factor-binding protein (Homo sapiens, UniProt P24387+Q13324).
T7 sequence (Q13324 whole entry): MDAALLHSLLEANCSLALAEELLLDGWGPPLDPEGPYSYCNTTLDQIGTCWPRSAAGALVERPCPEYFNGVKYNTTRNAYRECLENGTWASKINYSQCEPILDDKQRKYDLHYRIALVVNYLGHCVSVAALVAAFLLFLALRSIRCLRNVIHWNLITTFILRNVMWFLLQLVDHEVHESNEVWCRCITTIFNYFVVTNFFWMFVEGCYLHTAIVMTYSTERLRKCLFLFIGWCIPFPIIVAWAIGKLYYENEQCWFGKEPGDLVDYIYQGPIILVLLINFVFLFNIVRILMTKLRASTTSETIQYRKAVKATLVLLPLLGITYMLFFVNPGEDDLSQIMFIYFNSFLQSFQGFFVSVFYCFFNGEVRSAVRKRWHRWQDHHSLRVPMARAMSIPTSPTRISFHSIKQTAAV
T7 sequence (P24387 whole entry): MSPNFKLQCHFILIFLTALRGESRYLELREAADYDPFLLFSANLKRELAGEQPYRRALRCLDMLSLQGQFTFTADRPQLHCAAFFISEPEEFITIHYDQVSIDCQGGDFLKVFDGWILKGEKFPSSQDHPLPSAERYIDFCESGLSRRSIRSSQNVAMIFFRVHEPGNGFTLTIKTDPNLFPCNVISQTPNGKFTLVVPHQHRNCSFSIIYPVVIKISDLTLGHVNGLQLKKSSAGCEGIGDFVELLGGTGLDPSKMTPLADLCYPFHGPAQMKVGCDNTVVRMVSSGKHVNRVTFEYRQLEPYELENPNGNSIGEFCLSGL
Kind of assay: activators of CRF receptor 2 with binding protein – uHTS hits, confirmation (AID 602473). In kind it is functional. The conditions noted are these: read-out: EC50_Mean.

The IC50 is the concentration needed to halve the response being measured. `CCCOc1ccc(C(=O)Nc2ccc(Cl)cn2)cc1`: the IC50 is 7.83 µM (active) on Caspase-3; 3.22 µM (active) in assay [1]; 16.1 µM (active) in assay [2]; 9.81 µM (active) in assay [3]; 100 µM (inactive) on Protein skinhead-1.

The AC50 is the concentration at which the activity in the assay is half-maximal. In the case of `O=C1/C(=C\c2ccc(O)c(O)c2)SC(=S)N1Cc1ccccc1`, the IC50 at Caspase-3 was 67.5 µM (active); in [1], 13 µM (active); in assay [2], 11.5 µM (active); in assay [3], 10.7 µM (active). Also, the AC50 in assay [4] was 3.11 µM (active).

`O=C(NCCN1CCN(c2ccccc2F)CC1)c1cccn2c(=O)c3ccccc3nc12`: in the assay on H9c2, the IC50 was > 79 µM (inactive).

Take `NC(=O)COc1ccc2oc(=O)cc(-c3cc4ccccc4o3)c2c1`: in the assay with H9c2, the IC50 is > 79 µM (inactive).

With `COc1ccc(-c2cc3ccc(OC)cc3cn2)cc1`, the IC50 at Caspase-3 was 15.8 µM (active); in assay [1], 1.69 µM (active); in assay [2], > 100 µM (inactive); in [3], > 100 µM (inactive).

For the compound `O=C(c1cc(O)nc2ccccc12)N1CCN(S(=O)(=O)c2ccc3ccccc3c2)CC1`, the IC50 with H9c2 is > 79 µM (inactive).

With `CN(Cc1ccc(F)cc1)C(=O)CNC(=O)c1cccs1`, in [5], the IC50 was > 100 µM (inactive).

For `CC(C)(C)/N=C/c1c(O)ccc2oc3c(c12)CCCC3`, the IC50 in the assay with H9c2 is > 79 µM (inactive). The EC50 in [6] is > 53 µM (inactive).
